Laboratory results reported in patent publication US20260327211A1, “MODULATORS OF A POTASSIUM CHANNEL AND OF TRPV1 CHANNEL AND USES THEREOF” (Bsense Bio Therapeutics Ltd., priority 2023, published 2026).
pEC50, pIC50: −log10 of the molar value. Where two headings read alike, the source gives them in different places.

Assays:
hTRPV1 = molecular target: T1, hTRPV1 (Homo sapiens, UniProt Q8NER1); assay: TRPV1 whole-cell electrophysiology, CHO cells expressing hTRPV1 alone; type: cell-based
T1 construct: CDS of NM_080704.4, inserted into the multiple cloning site of pcDNA3.1(+); host or cells: CHO/hKv7.2/3
Text: Extracellular (Bath) solution: The solution was composed of (in mM): NaCl, 140; KCl, 4; CaCl2, 1.8; MgCl2, 1.2; Glucose, 11; HEPES, 5.5. pH was adjusted to 7.3 with NaOH. Osmolarity was adjusted to 310 mOsm with Sucrose.
Intracellular (Pipette) solution: Pipettes were pulled from borosilicate glass (Warner Instrument Corp, USA) with a resistance of 3-7 MΩ and filled with internal solution composed of (in mM): KCl, 130; MgCl2, 1; K ATP, 5; EGTA, 5; HEPES, 10. pH was adjusted to 7.3 with KOH. Osmolarity was adjusted to 290 mOsm with Sucrose. A programmable valve-linked pressurized perfusion system was used to locally apply compounds nearby the cell recorded, in a consistent flow rate of 2-3 ml/min. Data were sampled at 5 kHz and low pass filtered at 2.4 kHz using MultiClamp 700B amplifier with pCLAMP11 software (Molecular Devices, USA).
[…]. A 3-minute time interval was set between sequential Capsaicin injections to allow its washout and cell recovery. All compounds are injected in the vicinity of the cells using the pressurized perfusion system.
The drug current response, when capsaicin (co-applied with test compound) is injected following >3 minutes of pre-incubation with the test compound, is divided by the averaged control currents, obtained when capsaicin is injection alone, before compound incubation and following its washout, to evaluate the drug/control response.

CYP2C9 = molecular target: T2, CYP2C9 (Homo sapiens, UniProt P11712); assay: CYP inhibition / time-dependent inhibition, CYP2C9_Diclofenac; type: in vitro ADME; details: role: inhibitor
T2 construct: pre-incubation of the human liver microsomes with the test compound; tissue Corning; host or cells: human liver microsomes
Experimental: (§1) The time-dependent inactivation potency of the test compound to CYP enzymatic activities was assessed by the pre-incubation of the human liver microsomes with the test compound in the presence and absence of NADPH, followed by the incubation with the discrete marker substrates, as follows.
(§2) Pre-incubation with human liver microsomes (HLMs): The TDI inactivation potency on CYP enzymatic activities was evaluated through pre-incubation with HLMs (Corning). A liver microsome mixture at a concentration of 0.1 mg/mL, and the test compound at 8 different concentrations (0, 0.05, 0.165, 0.5, 1.65, 5.0, 16.5, or 50.0 μM) was warmed at 37° C. for 10 minutes. Concurrently, a set of known time-dependent inactivators was also prepared in duplicate for comparison. Following this, NADPH (1.0 mM) was added to one group (Group 1), and an equal volume of potassium phosphate buffer to the second group (Group 2), marking the beginning of a 30-minute pre-incubation at 37° C.
(§3) Incubation: After pre-incubation, the marker substrate, or marker substrate plus NADPH was added to the mixture, thereby initiating the incubation. The duration of the incubation was dependent on the type of CYP isoform being evaluated. For example, with the CYP3A isoform, the mixture was incubated over 3 minutes utilizing midazolam as the marker substrate (2.0 μM), verapamil as the standard inactivator (3.5 μM).
(§4) Termination of Reaction: Following the incubation, ice-cooled acetonitrile containing the internal standard (IS) was added to halt the reactions. Metabolites generated from the marker substrates were then measured via LC-MS/MS, assessed based on peak area ratios of the analyte to IS.

[1] = CYP inhibition / time-dependent inhibition, CYP3A4_Midazolam; type: in vitro ADME, human; details: human, liver microsomes, role: inhibitor
Experimental: as §1, §2, §3, §4

CYP2D6 = molecular target: T3, CYP2D6 (Homo sapiens, UniProt P10635); assay: CYP inhibition / time-dependent inhibition, CYP2D6_Dextromethorphan; type: in vitro ADME; details: role: inhibitor
T3 construct: pre-incubation of the human liver microsomes with the test compound; tissue Corning; host or cells: human liver microsomes
Experimental: as §1, §2, §3, §4

kappa opioid receptors = molecular target: T4, kappa opioid receptors (Homo sapiens, UniProt P41145); assay: Functional selectivity panel, kappa opioid receptors; type: biochemical
T4 construct: Eurofins DiscoverX, USA
Experimental: (§5) A broad panel of 78 recombinant targets was tested for pharmacologic activity in vitro through a variety of functional assays (Eurofins DiscoverX, USA), as part of the National Institute of Neurological Disorders and Stroke (NINDS) Preclinical Screening Platform for Pain (PSPP) program. The biological targets for the in vitro profiling have been selected based on avoiding opioid receptor stimulation and targets known to be associated with adverse events or targeted by drugs of abuse. […] For each test, a reference compound was evaluated at the target of interest as a positive control.

adrenergic β2 = molecular target: T5, adrenergic β2 (Homo sapiens, UniProt P07550); assay: Functional selectivity panel, adrenergic β2; type: biochemical
T5 construct: Eurofins DiscoverX, USA
Experimental: as §5

rats = assay: Core body temperature; type: in vivo, rat
Experimental: Core Body Temperature: Following two days of habituation to the measurement method, the body temperature was measured on study day for baseline values and then again post-dosing in the time points indicated in the figure. Body temperature was measured using a probe gently inserted into the animal anus using a corn oil lubricant (C8267, Sigma-Aldrich, IL).

CYP1A2 = molecular target: T6, CYP1A2 (Homo sapiens, UniProt P05177); assay: CYP inhibition / time-dependent inhibition, CYP1A2_Phenacetin; type: in vitro ADME; details: role: inhibitor
T6 construct: pre-incubation of the human liver microsomes with the test compound; tissue Corning; host or cells: human liver microsomes
T6 sequence (P05177 1-516): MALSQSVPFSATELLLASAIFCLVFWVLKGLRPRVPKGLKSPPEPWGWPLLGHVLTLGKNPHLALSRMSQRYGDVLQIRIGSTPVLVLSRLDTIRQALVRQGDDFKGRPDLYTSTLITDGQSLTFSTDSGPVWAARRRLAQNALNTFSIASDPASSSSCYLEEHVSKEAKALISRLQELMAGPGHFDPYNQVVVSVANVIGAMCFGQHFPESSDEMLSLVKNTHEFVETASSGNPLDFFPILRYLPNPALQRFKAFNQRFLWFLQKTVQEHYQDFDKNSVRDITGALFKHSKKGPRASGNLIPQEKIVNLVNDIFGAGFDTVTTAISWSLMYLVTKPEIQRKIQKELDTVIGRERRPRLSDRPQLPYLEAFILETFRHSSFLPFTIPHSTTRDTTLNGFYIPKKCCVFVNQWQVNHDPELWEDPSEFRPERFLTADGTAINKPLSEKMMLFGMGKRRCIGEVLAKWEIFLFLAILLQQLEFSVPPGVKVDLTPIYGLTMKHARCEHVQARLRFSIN
Experimental: as §1, §2, §3, §4

Nav1.5 = molecular target: T7, Nav1.5 (Homo sapiens, UniProt Q14524); assay: Functional selectivity panel, Nav1.5; type: biochemical; details: up to 10 micromolar
T7 construct: Eurofins DiscoverX functional panel cells
Experimental: as §5

T2 sequence (P11712 whole entry): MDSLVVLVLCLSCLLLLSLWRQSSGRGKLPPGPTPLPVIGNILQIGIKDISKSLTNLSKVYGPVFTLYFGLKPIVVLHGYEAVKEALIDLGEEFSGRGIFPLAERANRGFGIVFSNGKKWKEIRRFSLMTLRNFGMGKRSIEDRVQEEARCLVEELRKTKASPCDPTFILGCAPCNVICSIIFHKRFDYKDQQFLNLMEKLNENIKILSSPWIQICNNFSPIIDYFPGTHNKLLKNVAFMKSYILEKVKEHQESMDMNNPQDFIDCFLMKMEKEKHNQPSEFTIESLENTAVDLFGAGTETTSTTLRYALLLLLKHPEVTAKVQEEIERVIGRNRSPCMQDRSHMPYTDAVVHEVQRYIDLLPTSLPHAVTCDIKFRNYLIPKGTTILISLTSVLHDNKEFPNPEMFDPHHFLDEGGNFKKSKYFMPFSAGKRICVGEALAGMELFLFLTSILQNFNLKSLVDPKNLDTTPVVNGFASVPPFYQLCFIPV
T3 sequence (P10635 whole entry): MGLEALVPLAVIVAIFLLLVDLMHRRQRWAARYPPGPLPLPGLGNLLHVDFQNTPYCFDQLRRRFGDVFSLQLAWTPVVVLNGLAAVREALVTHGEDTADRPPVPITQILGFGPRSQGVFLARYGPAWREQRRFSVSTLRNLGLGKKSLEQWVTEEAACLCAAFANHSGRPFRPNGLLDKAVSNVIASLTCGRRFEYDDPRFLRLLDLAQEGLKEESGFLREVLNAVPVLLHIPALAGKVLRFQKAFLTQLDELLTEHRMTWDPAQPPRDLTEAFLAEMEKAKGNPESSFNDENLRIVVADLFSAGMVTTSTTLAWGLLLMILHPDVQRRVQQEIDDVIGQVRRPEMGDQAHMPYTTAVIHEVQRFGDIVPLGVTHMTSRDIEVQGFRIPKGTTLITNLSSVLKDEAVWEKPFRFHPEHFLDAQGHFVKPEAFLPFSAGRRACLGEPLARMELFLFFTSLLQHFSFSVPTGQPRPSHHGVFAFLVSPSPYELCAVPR
T4 sequence (P41145 whole entry): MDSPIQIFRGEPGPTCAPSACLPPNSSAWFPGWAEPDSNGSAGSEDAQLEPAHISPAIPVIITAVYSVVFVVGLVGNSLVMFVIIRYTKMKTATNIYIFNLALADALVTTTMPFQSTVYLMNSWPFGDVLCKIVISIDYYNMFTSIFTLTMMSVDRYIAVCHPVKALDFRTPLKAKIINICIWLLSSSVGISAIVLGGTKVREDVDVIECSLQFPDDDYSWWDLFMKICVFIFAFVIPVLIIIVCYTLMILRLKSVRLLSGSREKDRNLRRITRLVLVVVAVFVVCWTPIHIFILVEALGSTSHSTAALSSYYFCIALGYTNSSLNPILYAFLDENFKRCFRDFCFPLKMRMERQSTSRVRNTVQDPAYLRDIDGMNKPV
T1 sequence (Q8NER1 whole entry): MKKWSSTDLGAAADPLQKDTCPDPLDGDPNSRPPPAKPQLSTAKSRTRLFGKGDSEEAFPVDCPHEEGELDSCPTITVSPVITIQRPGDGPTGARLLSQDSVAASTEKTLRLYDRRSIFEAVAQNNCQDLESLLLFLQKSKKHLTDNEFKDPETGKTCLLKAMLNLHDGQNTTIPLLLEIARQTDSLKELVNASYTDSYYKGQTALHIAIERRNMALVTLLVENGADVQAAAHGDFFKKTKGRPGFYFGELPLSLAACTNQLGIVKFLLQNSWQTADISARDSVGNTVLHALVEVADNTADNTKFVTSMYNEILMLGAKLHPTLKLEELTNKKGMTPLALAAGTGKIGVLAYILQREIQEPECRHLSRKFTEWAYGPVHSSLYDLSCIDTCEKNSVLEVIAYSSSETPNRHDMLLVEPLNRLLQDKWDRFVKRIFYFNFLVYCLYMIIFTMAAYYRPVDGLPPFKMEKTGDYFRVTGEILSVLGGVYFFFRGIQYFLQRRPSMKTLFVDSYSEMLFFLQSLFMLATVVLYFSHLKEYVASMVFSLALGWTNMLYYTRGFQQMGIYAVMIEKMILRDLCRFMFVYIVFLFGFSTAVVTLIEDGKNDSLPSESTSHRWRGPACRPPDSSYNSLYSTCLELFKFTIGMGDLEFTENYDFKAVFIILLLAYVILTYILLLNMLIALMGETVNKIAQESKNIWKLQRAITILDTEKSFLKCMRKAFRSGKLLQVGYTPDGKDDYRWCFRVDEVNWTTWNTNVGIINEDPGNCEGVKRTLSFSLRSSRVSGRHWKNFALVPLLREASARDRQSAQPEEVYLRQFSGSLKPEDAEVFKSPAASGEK
T5 sequence (P07550 whole entry): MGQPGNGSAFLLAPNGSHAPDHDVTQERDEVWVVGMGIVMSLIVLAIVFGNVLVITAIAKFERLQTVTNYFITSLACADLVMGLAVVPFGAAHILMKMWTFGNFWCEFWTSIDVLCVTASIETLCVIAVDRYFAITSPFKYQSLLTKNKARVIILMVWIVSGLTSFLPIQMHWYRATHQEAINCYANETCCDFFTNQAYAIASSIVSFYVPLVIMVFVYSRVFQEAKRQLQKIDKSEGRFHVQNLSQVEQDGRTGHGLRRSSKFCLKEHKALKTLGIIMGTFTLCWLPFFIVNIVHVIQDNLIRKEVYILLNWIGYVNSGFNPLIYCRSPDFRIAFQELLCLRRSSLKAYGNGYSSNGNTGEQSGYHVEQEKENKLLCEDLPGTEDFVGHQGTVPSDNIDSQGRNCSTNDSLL
T7 sequence (Q14524 whole entry): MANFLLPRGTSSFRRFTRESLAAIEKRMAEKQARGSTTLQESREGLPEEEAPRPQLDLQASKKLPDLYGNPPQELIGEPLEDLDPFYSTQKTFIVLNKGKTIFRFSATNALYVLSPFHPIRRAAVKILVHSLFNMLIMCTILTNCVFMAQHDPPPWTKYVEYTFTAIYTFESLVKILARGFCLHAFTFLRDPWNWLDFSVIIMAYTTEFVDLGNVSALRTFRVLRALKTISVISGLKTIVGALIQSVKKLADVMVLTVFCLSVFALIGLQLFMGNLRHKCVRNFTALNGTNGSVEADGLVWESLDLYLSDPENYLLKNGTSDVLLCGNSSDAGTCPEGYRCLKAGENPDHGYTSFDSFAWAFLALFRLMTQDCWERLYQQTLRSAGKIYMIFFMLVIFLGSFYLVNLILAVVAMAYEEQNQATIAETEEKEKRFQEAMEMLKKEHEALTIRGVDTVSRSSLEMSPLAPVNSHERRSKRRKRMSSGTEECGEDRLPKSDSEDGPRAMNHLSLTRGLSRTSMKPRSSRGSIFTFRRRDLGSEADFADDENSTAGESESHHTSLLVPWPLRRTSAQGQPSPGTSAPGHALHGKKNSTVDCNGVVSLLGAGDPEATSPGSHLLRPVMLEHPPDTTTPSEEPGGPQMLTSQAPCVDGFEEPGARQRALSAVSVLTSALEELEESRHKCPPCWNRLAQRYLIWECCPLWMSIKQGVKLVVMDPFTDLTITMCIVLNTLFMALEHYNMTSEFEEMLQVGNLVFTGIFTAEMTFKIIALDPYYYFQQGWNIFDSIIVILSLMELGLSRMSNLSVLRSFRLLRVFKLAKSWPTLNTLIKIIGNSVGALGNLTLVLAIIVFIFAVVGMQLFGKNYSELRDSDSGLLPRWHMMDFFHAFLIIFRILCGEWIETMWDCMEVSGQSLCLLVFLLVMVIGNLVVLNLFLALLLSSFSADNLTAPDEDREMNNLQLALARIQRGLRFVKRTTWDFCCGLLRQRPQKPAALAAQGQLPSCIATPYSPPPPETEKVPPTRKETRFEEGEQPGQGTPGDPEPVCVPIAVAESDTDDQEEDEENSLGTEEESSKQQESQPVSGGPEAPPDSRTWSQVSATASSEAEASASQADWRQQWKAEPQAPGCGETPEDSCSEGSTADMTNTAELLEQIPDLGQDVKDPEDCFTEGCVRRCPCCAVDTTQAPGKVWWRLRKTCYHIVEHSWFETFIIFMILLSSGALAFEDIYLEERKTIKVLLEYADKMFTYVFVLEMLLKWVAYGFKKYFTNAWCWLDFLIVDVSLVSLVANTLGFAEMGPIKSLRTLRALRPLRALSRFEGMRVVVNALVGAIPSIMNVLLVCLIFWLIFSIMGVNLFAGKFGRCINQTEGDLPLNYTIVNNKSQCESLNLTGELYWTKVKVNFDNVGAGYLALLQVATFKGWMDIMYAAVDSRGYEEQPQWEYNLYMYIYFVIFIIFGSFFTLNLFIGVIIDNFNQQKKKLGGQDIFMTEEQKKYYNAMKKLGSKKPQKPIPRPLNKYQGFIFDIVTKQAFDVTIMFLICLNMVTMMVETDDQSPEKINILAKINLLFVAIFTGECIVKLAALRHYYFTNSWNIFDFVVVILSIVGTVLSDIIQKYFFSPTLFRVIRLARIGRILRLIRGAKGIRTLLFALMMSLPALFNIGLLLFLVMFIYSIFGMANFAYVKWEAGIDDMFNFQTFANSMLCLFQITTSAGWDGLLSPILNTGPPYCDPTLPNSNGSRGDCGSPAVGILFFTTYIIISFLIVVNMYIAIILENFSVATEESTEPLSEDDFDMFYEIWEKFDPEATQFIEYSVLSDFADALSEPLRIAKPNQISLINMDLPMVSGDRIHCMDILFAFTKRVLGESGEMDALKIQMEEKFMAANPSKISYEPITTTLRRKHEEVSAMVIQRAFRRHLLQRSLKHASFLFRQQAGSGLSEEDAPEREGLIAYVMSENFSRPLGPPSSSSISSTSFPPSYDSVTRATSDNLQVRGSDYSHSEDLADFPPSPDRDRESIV

O=C(Cc1cc(-n2cc(Cl)c3cc(Cl)cc(Cl)c32)ccc1F)NCCO [Compound 627]
pIC50 (hTRPV1): 5.70 | TRPV1 inhibition, hTRPV1 alone (hTRPV1; 1.3 μM): partial TRPV1 inhibition

O=C(Cc1cncc(-n2cc(Cl)c3cc(Cl)cc(Cl)c32)c1)N[C@@H]1COC[C@H]1O [Compound 661]
pIC50 (CYP2C9; (+)NADPH pre-incubation, substrate diclofenac, read-out: IC50 (+)NADPH CYP2C9_Diclofenac): 4.89 | pIC50 (CYP2C9; (−)NADPH pre-incubation, substrate diclofenac, read-out: IC50 (−)NADPH CYP2C9_Diclofenac): 4.83 | pIC50 ([1]; (+)NADPH pre-incubation, substrate midazolam 2.0 μM, read-out: IC50 (+)NADPH CYP3A4_Midazolam): 4.71 | pIC50 ([1]; (−)NADPH pre-incubation, substrate midazolam 2.0 μM, read-out: IC50 (−)NADPH CYP3A4_Midazolam): 4.52 | pIC50 (CYP2D6; (+)NADPH pre-incubation, substrate dextromethorphan, read-out: IC50 (+)NADPH CYP2D6_Dextromethorphan): 4.50 | pIC50 (CYP2D6; (−)NADPH pre-incubation, substrate dextromethorphan, read-out: IC50 (−)NADPH CYP2D6_Dextromethorphan): 4.55 | pEC50 (kappa opioid receptors; PAM): 5.15 | pIC50 (adrenergic β2; read-out: adrenergic β2 IC50): 5.40 | Core body temperature (rats; 20 and 50 mg/kg PO): no significant change in core body temperature | Core body temperature (rats; up to 300 mg/kg, 1-24 hours post-dose): no effects on core body temperature | pIC50 (CYP1A2; (+)NADPH pre-incubation, substrate phenacetin, read-out: IC50 (+)NADPH CYP1A2_Phenacetin): < 4.30 | pIC50 (CYP1A2; (−)NADPH pre-incubation, substrate phenacetin, read-out: IC50 (−)NADPH CYP1A2_Phenacetin): < 4.30

O=C(Cc1nccc(-n2cc(Cl)c3cc(Cl)cc(Cl)c32)n1)NC1COCC1O (stereo not shown) [Compound 760]
pIC50 (CYP2C9; Table 9, read-out: CYP inhibition IC50 CYP2C9): 4.35 | pIC50 ([1]; Table 9, substrate midazolam, read-out: CYP inhibition IC50 CYP3A-Midazolam): < 4.30 | pIC50 (CYP2D6; Table 9, read-out: CYP inhibition IC50 CYP2D6): < 4.30 | Effect on Nav1.5 (Nav1.5): no effect | Effect on Opioid kappa (kappa opioid receptors; up to 10 micromolar): no effect | pIC50 (adrenergic β2; antagonist, read-out: IC/EC50 Adrenergic β2-antagonist): 4.34 | Core body temperature (rats; up to 300 mg/kg oral): displayed safety potential at up to 300 mg/kg oral dosing | pIC50 (CYP1A2; Table 9, read-out: CYP inhibition IC50 CYP1A2): < 4.30
